Read-outs that look alike come from different tables or passages of the source.
Columns and labels:
CDK9/CyclinT1 = CDK9/CyclinT1 (Homo sapiens, UniProt P50750); test: ADP Glo kinase assay, CDK9/CyclinT1; format: biochemical; details: CDK9T1; for Ki: apparent Ki calculated from Km (ATP) and IC50, read-out: CDK inhibition Ki; for remaining activity at 10 µM: compound at 10 μM, read-out: residual enzymatic activity (%) at 10 μM; for remaining activity at 1 µM: compound at 1 μM (values marked *), read-out: residual enzymatic activity (%) at 1 μM*
CDK4/D1 = CDK4/D1 (Homo sapiens, UniProt P11802); test: ADP Glo kinase assay, CDK4/D1; format: biochemical; details: CDK4D1; for remaining activity at 10 µM: compound at 10 μM, read-out: residual enzymatic activity (%) at 10 μM; for remaining activity at 1 µM: compound at 1 μM (values marked *), read-out: residual enzymatic activity (%) at 1 μM*
CDK6/D3 = CDK6/D3 (Homo sapiens, UniProt Q00534); test: ADP Glo kinase assay, CDK6/D3; format: biochemical; details: CDK6D3; for remaining activity at 10 µM: compound at 10 μM, read-out: residual enzymatic activity (%) at 10 μM; for remaining activity at 1 µM: compound at 1 μM (values marked *), read-out: residual enzymatic activity (%) at 1 μM*
Description: Inhibition of FLT3(WT), FLT3(ITD) and FLT3(D835Y) and CDKs were determined using ADP Glo Kinase assays (Promega Corporation, Madison, WI, USA). […] Similarly, kinase reaction for CDK4/D1 and CDK6/D3 was performed with reaction buffer (40 nM Tris base pH 7.5, 20 mM MgCl2, 0.4 mM DTT), 0.1 mg/ml BSA and RB-CTF substrate (retinoblastoma protein1 C-terminal fraction). For CDK9/CyclinT1, the kinase reaction was performed with the standard assay buffer and Kinase Dilution Buffer and RBER-IRStide substrate. Half-maximal inhibition (IC50) values were calculated using a 4-parameter logistic non-linear regression model with Graphpad prism (Version 6.0). Apparent inhibition constants (Ki) values were calculated from Km (ATP) and IC50 values for the respective kinases.

U937 = test: Proliferation assay (resazurin/MTT), U937; format: cell-based; details: Homo sapiens, U-937, read-out: 72 h Growth inhibition GI50, U937 cells
CDK1B = CDK1B (Homo sapiens, UniProt P06493)
CDK7HMAT1 = CDK7HMAT1 (Homo sapiens, UniProt P50613);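 also: kinase activity measured with an ADP-Glo luminescent kinase assay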
CDK2E1 = CDK2E1 (Homo sapiens, UniProt P24941); details: 1 µM
MV-4-11 = test: Proliferation assay (resazurin/MTT), MV-4-11; format: cell-based; details: Homo sapiens, MV4-11, read-out: 72 h Growth inhibition GI50, MV-4-11 cells

CDK4/D1, sequence (P11802 whole entry, species assumed): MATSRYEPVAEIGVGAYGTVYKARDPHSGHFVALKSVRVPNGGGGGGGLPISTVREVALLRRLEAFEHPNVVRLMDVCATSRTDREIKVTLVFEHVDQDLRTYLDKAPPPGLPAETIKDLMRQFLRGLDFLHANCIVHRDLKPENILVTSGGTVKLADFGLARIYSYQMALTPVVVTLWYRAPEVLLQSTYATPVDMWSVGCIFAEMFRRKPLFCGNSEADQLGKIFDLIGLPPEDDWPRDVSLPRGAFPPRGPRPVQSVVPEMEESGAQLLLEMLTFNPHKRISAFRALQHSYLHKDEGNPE
CDK4/D1, sequence (P24385 whole entry partner, species assumed): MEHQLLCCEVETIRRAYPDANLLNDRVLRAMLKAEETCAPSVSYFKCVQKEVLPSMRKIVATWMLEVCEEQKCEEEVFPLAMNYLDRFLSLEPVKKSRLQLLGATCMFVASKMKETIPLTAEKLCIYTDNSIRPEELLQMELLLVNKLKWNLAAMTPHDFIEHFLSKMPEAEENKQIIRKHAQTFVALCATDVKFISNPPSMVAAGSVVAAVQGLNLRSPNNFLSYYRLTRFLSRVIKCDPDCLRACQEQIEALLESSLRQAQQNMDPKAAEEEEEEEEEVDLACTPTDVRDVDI
CDK9/CyclinT1, sequence (P50750 whole entry, species assumed): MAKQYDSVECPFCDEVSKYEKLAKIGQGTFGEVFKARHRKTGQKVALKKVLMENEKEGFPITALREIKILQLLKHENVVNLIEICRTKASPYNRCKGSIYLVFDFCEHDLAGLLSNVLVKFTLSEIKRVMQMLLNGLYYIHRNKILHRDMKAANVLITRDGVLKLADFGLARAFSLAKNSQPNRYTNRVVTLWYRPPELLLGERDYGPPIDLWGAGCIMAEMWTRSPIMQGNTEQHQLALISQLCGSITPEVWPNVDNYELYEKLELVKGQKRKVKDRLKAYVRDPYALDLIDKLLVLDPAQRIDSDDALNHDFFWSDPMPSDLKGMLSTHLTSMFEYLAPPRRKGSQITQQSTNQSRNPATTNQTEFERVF
CDK9/CyclinT1, sequence (O60563 whole entry partner, species assumed): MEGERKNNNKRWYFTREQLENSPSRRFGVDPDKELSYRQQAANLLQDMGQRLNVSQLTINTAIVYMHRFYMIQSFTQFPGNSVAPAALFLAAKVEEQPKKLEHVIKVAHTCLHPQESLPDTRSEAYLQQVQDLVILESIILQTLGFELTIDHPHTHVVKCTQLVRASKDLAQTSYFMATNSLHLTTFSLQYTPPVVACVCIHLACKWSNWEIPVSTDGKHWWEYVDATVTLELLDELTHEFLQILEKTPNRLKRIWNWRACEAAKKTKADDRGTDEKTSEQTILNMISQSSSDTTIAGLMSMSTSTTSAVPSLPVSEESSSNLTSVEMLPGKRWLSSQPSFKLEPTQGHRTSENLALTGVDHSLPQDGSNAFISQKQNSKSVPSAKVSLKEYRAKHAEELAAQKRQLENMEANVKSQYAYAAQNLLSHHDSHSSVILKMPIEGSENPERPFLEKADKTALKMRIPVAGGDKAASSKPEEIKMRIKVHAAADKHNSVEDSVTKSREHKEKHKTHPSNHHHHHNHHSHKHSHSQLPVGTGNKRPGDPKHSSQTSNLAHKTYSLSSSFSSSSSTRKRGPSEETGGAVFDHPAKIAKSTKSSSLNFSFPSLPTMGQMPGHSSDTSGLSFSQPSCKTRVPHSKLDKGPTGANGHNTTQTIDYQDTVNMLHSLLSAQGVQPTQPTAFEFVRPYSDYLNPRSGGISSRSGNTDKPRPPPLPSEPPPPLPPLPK
CDK7HMAT1, sequence (P50613 whole entry): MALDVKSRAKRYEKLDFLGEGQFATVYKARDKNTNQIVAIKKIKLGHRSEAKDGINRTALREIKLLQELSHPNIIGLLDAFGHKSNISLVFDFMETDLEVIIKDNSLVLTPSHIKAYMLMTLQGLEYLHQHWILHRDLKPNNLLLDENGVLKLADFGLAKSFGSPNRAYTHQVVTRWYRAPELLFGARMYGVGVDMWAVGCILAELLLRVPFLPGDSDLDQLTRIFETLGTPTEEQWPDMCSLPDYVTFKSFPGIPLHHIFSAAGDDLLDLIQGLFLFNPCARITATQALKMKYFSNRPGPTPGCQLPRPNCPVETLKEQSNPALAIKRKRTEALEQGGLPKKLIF
CDK7HMAT1, sequence (P51946 whole entry partner): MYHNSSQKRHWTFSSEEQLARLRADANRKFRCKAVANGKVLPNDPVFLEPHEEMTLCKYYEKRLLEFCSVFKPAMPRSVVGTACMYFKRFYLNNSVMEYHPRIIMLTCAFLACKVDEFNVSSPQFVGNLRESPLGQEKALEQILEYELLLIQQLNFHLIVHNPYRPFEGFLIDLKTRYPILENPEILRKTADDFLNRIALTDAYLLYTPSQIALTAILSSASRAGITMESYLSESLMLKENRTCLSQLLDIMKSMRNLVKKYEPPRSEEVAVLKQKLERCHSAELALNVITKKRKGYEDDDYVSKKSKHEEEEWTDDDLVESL
CDK7HMAT1, sequence (P51948 whole entry partner): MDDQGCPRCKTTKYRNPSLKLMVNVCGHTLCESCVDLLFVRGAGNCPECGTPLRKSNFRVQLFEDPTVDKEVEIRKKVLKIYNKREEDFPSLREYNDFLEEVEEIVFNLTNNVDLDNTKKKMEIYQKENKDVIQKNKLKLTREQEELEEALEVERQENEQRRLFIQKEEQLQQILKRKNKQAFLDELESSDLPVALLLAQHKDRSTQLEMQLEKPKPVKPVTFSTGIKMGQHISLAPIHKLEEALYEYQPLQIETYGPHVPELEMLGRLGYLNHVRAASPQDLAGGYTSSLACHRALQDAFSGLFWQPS
CDK1B, sequence (P06493 whole entry): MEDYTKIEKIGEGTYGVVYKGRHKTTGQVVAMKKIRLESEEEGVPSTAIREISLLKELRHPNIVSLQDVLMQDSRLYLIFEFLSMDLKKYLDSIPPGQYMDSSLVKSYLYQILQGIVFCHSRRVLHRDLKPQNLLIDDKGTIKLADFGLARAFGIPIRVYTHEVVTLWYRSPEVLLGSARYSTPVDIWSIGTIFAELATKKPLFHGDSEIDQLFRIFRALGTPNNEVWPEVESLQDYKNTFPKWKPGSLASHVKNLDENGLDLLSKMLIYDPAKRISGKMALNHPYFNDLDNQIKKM
CDK1B, sequence (P14635 whole entry partner): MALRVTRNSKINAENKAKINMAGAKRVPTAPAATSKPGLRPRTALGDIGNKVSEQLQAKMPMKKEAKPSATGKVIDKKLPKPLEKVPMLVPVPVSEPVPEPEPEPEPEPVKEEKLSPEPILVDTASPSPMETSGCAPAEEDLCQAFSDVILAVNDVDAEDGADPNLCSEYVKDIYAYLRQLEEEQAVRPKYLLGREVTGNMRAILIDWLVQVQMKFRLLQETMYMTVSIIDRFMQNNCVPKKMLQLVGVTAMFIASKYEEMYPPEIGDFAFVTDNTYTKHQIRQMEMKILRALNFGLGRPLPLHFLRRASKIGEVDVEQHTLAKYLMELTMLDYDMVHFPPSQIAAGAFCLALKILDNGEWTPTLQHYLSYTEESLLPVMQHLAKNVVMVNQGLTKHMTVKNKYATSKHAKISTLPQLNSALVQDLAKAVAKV
CDK6/D3, sequence (Q00534 whole entry, species assumed): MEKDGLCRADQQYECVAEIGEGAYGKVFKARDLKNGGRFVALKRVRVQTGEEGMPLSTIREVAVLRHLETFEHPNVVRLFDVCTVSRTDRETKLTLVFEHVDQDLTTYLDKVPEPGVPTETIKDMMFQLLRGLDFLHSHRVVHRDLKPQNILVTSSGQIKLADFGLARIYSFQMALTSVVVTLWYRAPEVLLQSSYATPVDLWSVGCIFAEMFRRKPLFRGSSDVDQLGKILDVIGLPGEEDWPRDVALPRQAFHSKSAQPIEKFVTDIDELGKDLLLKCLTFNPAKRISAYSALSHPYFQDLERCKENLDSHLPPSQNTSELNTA
CDK6/D3, sequence (P30281 whole entry partner, species assumed): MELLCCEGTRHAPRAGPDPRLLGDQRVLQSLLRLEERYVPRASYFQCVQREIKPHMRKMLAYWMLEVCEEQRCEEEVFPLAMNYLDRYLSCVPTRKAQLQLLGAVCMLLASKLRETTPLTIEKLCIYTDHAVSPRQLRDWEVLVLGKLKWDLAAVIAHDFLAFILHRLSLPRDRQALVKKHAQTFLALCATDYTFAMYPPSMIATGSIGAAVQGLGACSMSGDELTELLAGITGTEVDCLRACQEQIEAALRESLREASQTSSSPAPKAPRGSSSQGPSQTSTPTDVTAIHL

Row | Ki (CDK9/CyclinT1) | remaining activity at 10 µM (CDK4/D1) | remaining activity at 10 µM (CDK6/D3) | GI50 (U937) | activity (CDK1B; 10 µM) | activity (CDK7HMAT1; 10 µM) | activity (CDK2E1) | GI50 (MV-4-11) | remaining activity at 10 µM (CDK9/CyclinT1) | Ki (CDK6/D3; apparent Ki calculated from Km (ATP) and IC50, read-out: CDK inhibition Ki) | remaining activity at 1 µM (CDK9/CyclinT1) | remaining activity at 1 µM (CDK4/D1) | remaining activity at 1 µM (CDK6/D3) | activity (CDK1B; 1 µM) | activity (CDK7HMAT1; 1 µM) | SMILES
1 | 1380 nM | 48% | 24% | 11400 nM | 50% | 70% | 85% | 35 nM | – | – | – | – | – | – | – | CC(=O)N1CCCN(c2ccc(Nc3nccc(-c4cnc5ccccn45)n3)nc2)CC1 [Cmpd 6, 1-(4-(6-((4-(Imidazo[1,2-a]pyridin-3-yl)pyrimidin-2-yl)amino)pyridin-3-yl)-1,4-diazepan-1-yl)ethan-1-one]
2 | 289 nM | 27% | 40% | 1410 nM | 27% | 82% | 59% | 30 nM | – | – | – | – | – | – | – | CC(=O)N1CCN(c2ccc(Nc3nccc(-c4cnc5ccc(F)cn45)n3)nc2)CC1 [Cmpd 8, 1-(4-(6-((4-(6-Fluoroimidazo[1,2-a]pyridin-3-yl)pyrimidin-2-yl)amino)pyridin-3-yl)piperazin-1-yl)ethan-1-one]
3 | – | 46% | – | 3900 nM | 38% | 60% | 97% | 14 nM | 32% | > 5000 nM | – | – | – | – | – | CC(=O)N1CCN(c2ccc(Nc3nccc(-c4cnc5ccc(C(F)(F)F)cn45)n3)nc2)CC1 [Cmpd 11, 1-(4-(6-((4-(6-(Trifluoromethyl)imidazo[1,2-a]pyridin-3-yl)pyrimidin-2-yl)amino)pyridin-3-yl)piperazin-1-yl)ethan-1-one]
4 | – | 93% | 42% | 400 nM | 70% | 86% | 67% | 9 nM | 29% | – | – | – | – | – | – | CC(=O)N1CCN(c2ccc(Nc3nccc(-c4cnc5ccc(-c6ccco6)cn45)n3)nc2)CC1 [Cmpd 12, 1-(4-(6-((4-(6-(Furan-2-yl)imidazo[1,2-a]pyridin-3-yl)pyrimidin-2-yl)amino)pyridin-3-yl)piperazin-1-yl)ethan-1-one]
5 | 699 nM | 69% | 92% | 664 nM | 94% | 78% | 56% | 7 nM | – | – | – | – | – | – | – | CC(=O)N1CCN(c2ccc(Nc3nccc(-c4cnc5ccc(-c6ccccc6)cn45)n3)nc2)CC1 [Cmpd 14, 1-(4-(6-((4-(6-Phenylimidazo[1,2-a]pyridin-3-yl)pyrimidin-2-yl)amino)pyridin-3-yl)piperazin-1-yl)ethan-1-one]
6 | 680 nM | 77% | 91% | 1480 nM | 64% | 65% | 88% | 5 nM | – | – | – | – | – | – | – | CC(=O)N1CCN(c2ccc(Nc3nccc(-c4cnc5ccc(-c6cccnc6)cn45)n3)nc2)CC1 [Cmpd 15, 1-(4-(6-((4-(6-(Pyridin-3-yl)imidazo[1,2-a]pyridin-3-yl)pyrimidin-2-yl)amino)pyridin-3-yl)piperazin-1-yl)ethan-1-one]
7 | – | 48% | 100% | 8700 nM | 69% | 99% | 97% | 23 nM | – | – | – | – | – | – | – | CC(=O)N1CCN(c2ccc(Nc3nccc(-c4cnc5ccc(-c6cnc(N)nc6)cn45)n3)nc2)CC1 [Cmpd 18, 1-(4-(6-((4-(6-(2-Aminopyrimidin-5-yl)imidazo[1,2-a]pyridin-3-yl)pyrimidin-2-yl)amino)pyridin-3-yl)piperazin-1-yl)ethan-1-one]
8 | – | 53% | 65% | 6710 nM | 96% | 54% | 82% | 17 nM | 33% | – | – | – | – | – | – | COc1ncc(-c2ccc3ncc(-c4ccnc(Nc5ccc(N6CCN(C(C)=O)CC6)cn5)n4)n3c2)cn1 [Cmpd 19, 1-(4-(6-((4-(6-(2-Methoxypyrimidin-5-yl)imidazo[1,2-a]pyridin-3-yl)pyrimidin-2-yl)amino)pyridin-3-yl)piperazin-1-yl)ethan-1-one]
9 | > 5000 nM | 78% | 102% | 4560 nM | 95% | 97% | 86% | 17 nM | – | – | – | – | – | – | – | CC(=O)N1CCN(c2ccc(Nc3nccc(-c4cnc5ccc(-c6cc7ccccc7o6)cn45)n3)nc2)CC1 [Cmpd 21, 1-(4-(6-((4-(6-(Benzofuran-2-yl)imidazo[1,2-a]pyridin-3-yl)pyrimidin-2-yl)amino)pyridin-3-yl)piperazin-1-yl)ethan-1-one]
10 | > 5000 nM | 64% | 102% | > 10000 nM | 100% | 106% | 83% | 2 nM | – | – | – | – | – | – | – | CC(=O)N1CCN(c2ccc(Nc3nccc(-c4cnc5ccc(-c6cc7ccccc7s6)cn45)n3)nc2)CC1 [Cmpd 22, 1-(4-(6-((4-(6-(Benzo[b]thiophen-2-yl)imidazo[1,2-a]pyridin-3-yl)pyrimidin-2-yl)amino)pyridin-3-yl)piperazin-1-yl)ethan-1-one]
11 | 421 nM | 50% | 71% | 323 nM | 59% | 55% | 76% | 1 nM | – | – | – | – | – | – | – | CC(=O)N1CCN(c2ccc(Nc3nccc(-c4cnc5ccc(-c6cc[nH]c6)cn45)n3)nc2)CC1 [Cmpd 23, 1-(4-(6-((4-(6-(1H-Pyrrol-3-yl)imidazo[1,2-a]pyridin-3-yl)pyrimidin-2-yl)amino)pyridin-3-yl)piperazin-1-yl)ethan-1-one]
12 | – | – | – | 538 nM | – | – | 73% | 4 nM | – | – | 36% | 73% | 73% | 95% | 83% | CC(=O)N1CCN(c2ccc(Nc3nccc(-c4cnc5ccc(-c6ccsc6)cn45)n3)nc2)CC1 [Cmpd 26, 1-(4-(6-((4-(6-(Thiophen-3-yl)imidazo[1,2-a]pyridin-3-yl)pyrimidin-2-yl)amino)pyridin-3-yl)piperazin-1-yl)ethan-1-one]
13 | – | – | – | 883 nM | – | – | 89% | 2 nM | – | – | 31% | 70% | 70% | 88% | 93% | CC(=O)N1CCN(c2ccc(Nc3nccc(-c4cnc5ccc(-c6cnn(C)c6)cn45)n3)nc2)CC1 [Cmpd 27, 1-(4-(6-((4-(6-(1-Methyl-1H-pyrazol-4-yl)imidazo[1,2-a]pyridin-3-yl)pyrimidin-2-yl)amino)pyridin-3-yl)piperazin-1-yl)ethan-1-one]
14 | – | – | – | > 10000 nM | – | – | 92% | 38 nM | – | – | 69% | 95% | 85% | 101% | – | CC(=O)N1CCN(c2ccc(Nc3nccc(-c4cnc5ccc(-c6cc7ccccc7n6C)cn45)n3)nc2)CC1 [Cmpd 39, 1-(4-(6-((4-(6-(1-Methyl-1H-indol-2-yl)imidazo[1,2-a]pyridin-3-yl)pyrimidin-2-yl)amino)pyridin-3-yl)piperazin-1-yl)ethan-1-one]
15 | – | – | – | > 10000 nM | – | – | 66% | 387 nM | – | – | 93% | 63% | 68% | 91% | – | CC(=O)N1CCN(c2ccc(Nc3ncc(C)c(-c4cnc5ccccn45)n3)nc2)CC1 [Cmpd 44, 1-(4-(6-((4-(Imidazo[1,2-a]pyridin-3-yl)-5-methylpyrimidin-2-yl)amino)pyridin-3-yl)piperazin-1-yl)ethan-1-one]
16 | – | – | – | 2400 nM | – | – | – | 7 nM | – | – | – | 63% | 86% | – | – | CN1CCN(c2ccc(Nc3nccc(-c4cnc5ccc(-c6ccccc6)cn45)n3)nc2)CC1 [Cmpd 46, N-(5-(4-Methylpiperazin-1-yl)pyridin-2-yl)-4-(6-phenylimidazo[1,2-a]pyridin-3-yl)pyrimidin-2-amine]
17 | – | – | – | 1880 nM | – | – | 73% | 48 nM | – | – | 43% | 76% | 71% | 90% | – | CS(=O)(=O)N1CCN(c2ccc(Nc3nccc(-c4cnc5ccccn45)n3)nc2)CC1 [Cmpd 48, 4-(Imidazo[1,2-a]pyridin-3-yl)-N-(5-(4-(methylsulfonyl)piperazin-1-yl)pyridin-2-yl)pyrimidin-2-amine]
18 | – | – | – | 4330 nM | – | – | – | 9 nM | – | – | 52% | – | – | – | – | CS(=O)(=O)N1CCN(c2ccc(Nc3nccc(-c4cnc5ccc(-c6ccccc6)cn45)n3)nc2)CC1 [Cmpd 54, N-(5-(4-(Methylsulfonyl)piperazin-1-yl)pyridin-2-yl)-4-(6-phenylimidazo[1,2-a]pyridin-3-yl)pyrimidin-2-amine]

From patent publication US12398132B2, “Derivatives of 4-(imidazo[1,2-a]pyridin-3-yl)-n-(pyridinyl)pyrimidin-2-amine as therapeutic agents” (AUCENTRA THERAPEUTICS PTY LTD, priority 2019, dated 2025)
